Assays:
[1] = target: T1, PKA, catalytic subunit, recombinant (Homo sapiens, UniProt P17612); test: PKA IMAP Kinase Assay; format: biochemical; details: for Selectivity Ratio (PKA/Akt): PKA IC50 divided by Akt IC50; for IC50: Table 6, selectivity study
T1 construct: purchased Upstate 14-440
Protocol: The PKA Kinase assay is used to measure the selectivity of the compounds of formula I for PKA kinase as discussed below. The PKA activity of the compounds of formula I was determined using the PKA IMAP® Kinase Assay (G7096A).
Materials: • 1) Kinase Reaction Buffer (RB):—10 mM Tris-HCl, pH 7.5, 10 mM MgCl2, 0.1 mM EGTA, 0.01% Triton-X 100 (Sigma #X-100); 1 mM DTT (N.E. Biolabs #B7705S) added fresh • 2) ATP (Sigma #5394) 10 mM stock in H2O, −20° C. • 3) 20 μM working stock TAMRA Kemptide (TK. Molecular Devices #R7332): [N-Term]TMRS-Leu-Arg-Arg-Ala-Ser-Leu-Gly-OH[C-Term] • 4) PKA, catalytic subunit, recombinant (Upstate #14-440). 5 ug/25 ul lot 22361AU • 5) DMSO (Baker #9224-01) • 6) IMAP® Progressive Express Screening Kit for IPP (Molecular Devices #R8124) Includes IMAP® Progressive Beads and Binding Buffer • 7) 96-well ½ area plates, black polystyrene, Costar #3694 • 8) 96-well round bottom polypropylene plates, Costar #9667
NOTE: Protect all Tamra-Containing Reagents from Light.
• 1) Prepare the 1× Reaction Buffer (RB) by fresh addition of DTT to 1 mM • 2) For single point testing, make up compound dilution plate as follows: “96 well plates; Row Empty: empty; 84 cmpds” are added to the remaining wells at […]. • 3) For 150 determination: To column 2 of polypropylene plate add 100 ul 100% DMSO; to all other wells add 60 ul 100% DMSO. • 4) Pipet 2 ul 10 mM stock compound to column 2; mix well • 5) Serially dilute 1:3 across from column 2-11, transferring 30 ul to next well and mixing well. • 6) Leave column 12 for zero compound (control signal) • 7) For Single Point testing (10 uM final) add 1 ul 10 mM compound to 100 ul DMSO; mix; transfer 5 ul to 120 ul RB; mix; transfer 5 ul to Assay Plate • 8) For 150 determination: Make up compound RB dilution plate: 60 μl/well RB in 96-well polypropylene round bottom plate. • 9) Transfer compounds to assay plate as follows: Mix DMSO dilutions; transfer 15 μl to 60 μl RB; transfer 5 μl/well to assay plates (single points, triplicate plates), delivering carefully to the bottom of the well; repeat for each dilution up to 10 μM. • 10) To run PKA Reactions: Make up ATP/KT solution; 4 uM ATP, 200 nM KT ([…], 100 nM KTfinal) • 11) Pipet 10 μl KT/ATP to wells containing compound. • 12) Make up protein solution in RB and determine the protein concentration. • 13) Deliver 5 μl protein solution to all wells except A1-H1, delivering to the upper region of the side of the well; Add 5 μl RB to A1-H1 (these are the 0 protein background controls) • 14) Gently tap the plate to ensure all volumes get to the bottom. Cover with foil lid. • 15) Incubate RT on bench top 30 minutes. • 16) Add 60 μl IMAP® beads in IMAP® Progressive binding buffer (100% A) diluted 1:1000 • 17) Read on VICTOR™ plate reader (protocol LissieTAMRA2) with the following settings: CW lamp filter 544 nm; emission filter 615 nm. Some adjustments may be made to the plate reader protocol depending on the reader and available filters. • 18) Use XLDA to calculate IC50s.

Akt1 = target: T2, Akt1 (Homo sapiens, UniProt P31749, S473D); test: Akt1 kinase assay, fluorescence polarization (IMAP); format: biochemical; details: Table 6, selectivity study; read-out: Akt Kinase Activity
T2 construct: The version of Akt used in these studies lacks the pleckstrin homology (PH) domain
How it was run: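 His-tagged Akt1 lacking the PH domain, Thr308-prephosphorylated, 1.5 ng per reaction, with 4 μM ATP and 40 nM TAMRA-Crosstide (solution concentrations) in Tris pH 7.5/MgCl2/DTT buffer. Incubated 30 min at ambient temperature; IMAP fluorescence polarization read (544/615 nm). IC50 after subtraction of no-enzyme background.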

T2 sequence (P31749 118-480 S473D limits assumed, species assumed): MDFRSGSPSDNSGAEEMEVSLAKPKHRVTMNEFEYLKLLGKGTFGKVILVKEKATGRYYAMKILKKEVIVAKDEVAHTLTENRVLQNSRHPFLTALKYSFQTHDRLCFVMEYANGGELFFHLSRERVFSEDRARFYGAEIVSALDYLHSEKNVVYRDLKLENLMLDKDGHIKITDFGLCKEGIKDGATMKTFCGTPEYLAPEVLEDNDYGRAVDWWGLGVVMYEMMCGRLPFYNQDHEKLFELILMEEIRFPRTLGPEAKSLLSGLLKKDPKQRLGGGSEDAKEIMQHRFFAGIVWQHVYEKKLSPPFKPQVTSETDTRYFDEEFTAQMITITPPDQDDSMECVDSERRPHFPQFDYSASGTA

| SMILES | Selectivity Ratio (PKA/Akt) [1] | IC50 [1] | IC50 (Akt1) |
| --- | --- | --- | --- |
| Cc1c[nH]c2ncnc(N3CCC(N)(CNc4ccc(Cl)cc4)CC3)c12 [BB, 4-(4-chloro(phenylamino)methyl)-1-(5-methyl-7H-pyrrolo[2,3-d]pyrimidin-4-yl)piperidin-4-amine, reference compound] | 0.57 | 26.3 nM | 45.9 nM |
| Cc1c[nH]c2ncnc(N3CCC(N)(CNc4ccccc4)C3)c12 (stereo not drawn) [Example 199, 3-((phenylamino)methyl)-1-(5-methyl-7H-pyrrolo[2,3-d]pyrimidin-4-yl)pyrrolidin-3-amine] | 15.93 | 2580 nM | 162 nM |
| Cc1c[nH]c2ncnc(N3CCC(N)(CNc4ccc(Cl)cc4)C3)c12 (stereo not drawn) [Example 200, 3-(4-chloro(phenylamino)methyl)-1-(5-methyl-7H-pyrrolo[2,3-d]pyrimidin-4-yl)pyrrolidin-3-amine] | 2.36 | 279 nM | 118 nM |
